Experimental findings from US10100079B2, “Progesterone-cationic lipid hybrid as anticancer agent and the process of synthesis thereof” (Council of Scientific & Industrial Research, priority 2016, dated 2018) are described below.

The test system of one series is MCF7. Nature of the series: MTT cytotoxicity assay, MCF7. Conditions: Homo sapiens, read-out: IC50 MCF7. Format: cell-based. As to the method: (§1) All cells were grown into mycoplasma free condition. […] All cells were grown up to 75-85% confluency after which cells were trypsinized, counted and seeded, in 96-well plates for cell viability studies, 6-well plates for apoptosis studies, 60 mm dish for cell cycle studies and in 25 cm^2 or 75 cm^2 tissue culture flasks for Western blot studies. The primary stock of the cationic progesterone molecules were made in cell culture grade DMSO and from that secondary stock was prepared by serial dilution with cell culture grade DMSO. The final working concentrations were prepared by diluting the secondary stock in cell culture media keeping the DMSO concentration in working solution below 0.2% with respect to cell culture medium. […] For this assay, 12-18 h before treatment cells were plated in 96-well plate at 5000 cells/well density. […] After completion of the treatment, 10 μL of MTT solution (5 mg/mL) was added in each well and incubated for 4 h. Then the media was removed carefully, and the reduced MTT was dissolved in 1:1 (v/v) DMSO/Methanol and absorbance was measured using multimode reader (Synergy H1, BioTek). Results were represented as percentage of viability={[A550(treated cells)−background]/[A550(untreated cells)−background]}×100. The result was summarized and provided as IC50 table in Table 1.
(In general: Formazan colour is commonly taken as a measure of viable cells.)

The next series has as its system OVCAR-3. Put plainly: MTT cytotoxicity assay, OVCAR-3. Format: cell-based. Conditions: Homo sapiens, read-out: IC50 OVCAR-3. As to the method:
as §1

A further series has as its system NIH-3T3. Nature of the series: MTT cytotoxicity assay, NIH-3T3. The following applies: Mus musculus, read-out: IC50 NIH-3T3. Format: cell-based, murine. As to the method: as §1
Series [1] deals with non-cancer cells CHO, COS-1 and NIH-3T3. Put plainly: MTT viability, tested non-cancer cells (combination treatment study, FIG. 1B). Conditions: 48 h; for toxicity in non-cancer cells: 10 μM (1+10C: 10 μM+10 μM). Format: cell-based. As to the method: FIG. 1B: The viability studies of non-cancer cells CHO, COS-1 and NIIH-3T3 after 48 h of continuous treatment with compound 1 (10 μM), 10C [cationic lipid control molecule not containing progesterone moiety]
(§2) Cytotoxicity assay of the different compounds were carried out by using 3-(4,5-dimethylthiazol-2-yl)-2,5-diphenyltetrazolium bromide (MTT). For this assay, 12-18 h before treatment cells were plated in 96-well plate at 5000 cells/well density. After incubation cells were treated continuously for 48 h with respective compounds at different concentration (2.5 μM-40 μM). After completion of the treatment, 10 μL of MTT solution (5 mg/mL) was added in each well and incubated for 4 h. Then the media was removed carefully, and the reduced MTT was dissolved in 1:1 (v/v) DMSO/Methanol and absorbance was measured using multimode reader (Synergy H1, BioTek). Results were represented as percentage of viability={[A550(treated cells)−background]/[A550(untreated cells)−background]}×100. The result was summarized and provided as IC50 table in Table 1.
(§3) For combination treatment effect, cells were plated in 96 well plates at 5000 cells/well. […] Following 48 h of treatment cell viability was measured following above mentioned MTT study.

Another series concerns COS-1. Put plainly: MTT cytotoxicity assay, COS-1. Format: cell-based. The following applies: Chlorocebus aethiops, read-out: IC50 COS-1. As to the method: as §1
For the next series, the system named is B16F10 (PgR-negative). Nature of the series: Cell cycle assay by flow cytometry (PI), B16F10. It is filed as cell-based, murine. The following applies: B16F10, 10 μM, 24 h. As to the method:
(§4) To measure the cellular DNA content, cell cycle assay was carried out. In this assay, first cells were synchronized at early S-phase by double thymidine blocking. When cell confluency was reached around 25-30% in 60 mm dish, cells were treated with 2 mM thymidine, diluted in 10% FBS containing DMEM, for 18 h to block cells at early S-phase. To release the blocking, media was discarded and washed with 1×PBS. Then the cells were incubated with fresh cell culture media containing 10% FBS for 9 h. After releasing, second blocking was done with 2 mM thymidine containing media for 17 h. After second blocking cells were released by discarding the thymidine supplemented media and kept in fresh media. All the respective treatments for cell cycle study were done after 2 h of second release.
(§5) S-phase synchronized cells were either kept untreated or treated with compound 1 (10 μM) and 6c (10 μM) for 24 h. Cells from different treatment groups were harvested, washed with 1×PBS, and fixed with 70% ethanol and kept at −20° C. for overnight. Then the ethanol was removed and washed with 1×PBS. […] After incubation cells were collected by centrifugation, washed with 1×PBS, re-suspended in 500 μL 1×PBS, and data was recorded using flow cytometer (FACS Canto II, Becton-Dickinson, San Jose, Calif., USA) and data were analyzed with FACS Diva software. […]

The test system of series [2] is cancer cells T47D, OVCAR-3, MDA-MB-231, MCF-7 and B16F10. Nature of the series: MTT viability, all tested cancer cells (combination treatment study, FIG. 1A). It is filed as cell-based. Conditions: 48 h; for toxicity in cancer cells: 10 μM (1+10C: 10 μM+10 μM). As to the method: FIG. 1A: The viability studies of cancer cells T47D, OVCAR-3, MDA-MB-231, MCF-7 and B16F10 after 48 h of continuous treatment with compound 1 (10 μM), 10C [cationic lipid control molecule not containing progesterone moiety]
as §2, §3

For series [3], the system named is chick embryo vascularization. Put plainly: Chick embryo angiogenesis (CEA) assay. It is filed as in vivo, chicken. The following applies: 20 μL, 5 μM, 4 h. As to the method: FIG. 7B: In vivo chick embryo angiogenesis (CEA) assay. Vascular sprouting was imaged following 0 h (left panel) and 4 h (right panel) treatment with DMSO, 1 (20 μL, 5 μM) and 6c (20 μL, 5 μM). Damaged vessel is indicated by black arrow.
To measure the anti-angiogenic property chick embryo angiogenesis study was carried out. For this study, fertile chicken eggs were incubated at 37° C. humidified incubator. After four day of incubation, the […] of the eggs were cautiously removed using forceps. After that, the egg yolks were carefully treated with DMSO (20 μL; 0.1% DMSO in IX PBS), compound 1 (20 μL; 5 μM), and 6c (20 μL; 5 μM) for 4 h. Images were captured at 0 and 4 h of incubation with a stereomicroscope (Leica). Different angiogenic parameters were quantified using Angioquant software.

For the next series, the system named is T47D (PgR-positive). Nature of the series: Cell cycle assay by flow cytometry (PI), T47D. It is filed as cell-based, human. The following applies: 10 μM, 24 h. As to the method:
as §4, §5

Series [4] concerns MDA-MB-231 (PgR-negative). Nature of the series: Cell cycle assay by flow cytometry (PI), MDA-MB-231. It is filed as cell-based, human. The following applies: MDA-MB-231, 10 μM, 24 h. As to the method:
as §4, §5
Background: Flow cytometry measures light scatter and fluorescence of single cells or particles in a stream.

For another series, the system named is MDA-MB-231. Put plainly: MTT cytotoxicity assay, MDA-MB-231. Format: cell-based, human. As to the method:
as §1

Like-named read-outs stand apart in the source and are kept apart here.

By IC50 is commonly meant the concentration at which inhibition is half-maximal. `CCCCCCCCCC[N+](C)(CCCCCCCCCC)CCNC(=O)CCC(=O)O[C@@H](C)[C@H]1CCC2C3CCC4=CC(=O)CC[C@]4(C)C3CC[C@@]21C` (stereo partly drawn) [Compound 6c, N-decyl-N-(2-(4-((1S)-1-((10R,13S,17S)-10,13-dimethyl-3-oxo-2,3,6,7,8,9,10,11,12,13,14, 15,16,17-tetradecahydro-1H-cyclopenta[a]phenanthren-17-yl)ethoxy)-4-oxobutanamido)ethyl)-N-methyldecan-1-aminium chloride]: the IC50 in the series on MCF7 (MCF7, 48 h) was 7.33 ± 0.19 µM; with OVCAR-3 (OVCAR-3, 48 h), 4.48 ± 0.23 µM; with NIH-3T3 (NIH3T3, 48 h) it was above 20 µM; in the series with COS-1 (COS-1, 48 h), above 20 µM; with MDA-MB-231 (Homo sapiens, MDA-MB-231, 48 h, read-out: IC50 MDA-MB-231, MTT, 48 h continuous treatment) it was 6.67 ± 0.27 µM; with MDA-MB-231 (read-out: IC50 MDA-MB-231, MTT, 48 h continuous treatment), 3.63 ± 0.16 µM. In addition, in series [1], the “toxicity in non-cancer cells” value is reported as “not in non-cancerous cell”. The “toxicity towards tested non-cancer cells” value in series [1] (2.5 μM-40 μM) is “largely non-toxic”. The “total cell population in G2/M phase” value in the series with B16F10 (PgR-negative) was 33%; in the series with T47D (PgR-positive), 38%; in series [4], 34%. In addition, in series [2], the “toxicity in cancer cells” value is “significant toxicity only in cancer cells”. Besides, in [2] (2.5 μM-40 μM), the “cell killing in all tested cancer cells” value is on record as “significant amount of cell killing”. In [3], the “effect on blood vessels / vascularization network” value is recorded as “blood vessels were either significantly damaged or new blood vessel formation was delayed”.

Consider `CC(=O)[C@H]1CC[C@H]2[C@@H]3CCC4=CC(=O)CC[C@]4(C)[C@H]3CC[C@]12C` [Compound 1, Progesterone], for which the IC50 in the series on MCF7 (MCF7, MTT, 48 h continuous treatment) was above 20 µM; in the series on OVCAR-3 (OVCAR-3, MTT, 48 h continuous treatment), above 20 µM; in the series with NIH-3T3 (NIH3T3, MTT, 48 h continuous treatment, non-cancer cell), above 20 µM; in the series with COS-1 (COS-1, MTT, 48 h continuous treatment, non-cancer cell), above 20 µM; in the series with MDA-MB-231 (Homo sapiens, MDA-MB-231, MTT, 48 h continuous treatment, read-out: IC50 MDA-MB-231), above 20 µM. For the same compound, the “toxicity in non-cancer cells” value in series [1] is “did not impart any significant toxicity”. Further, the “total cell population in G2/M phase” value with B16F10 (PgR-negative) came to 19%; with T47D (PgR-positive), 10%; in [4] it was 21%. Also, the “toxicity in cancer cells” value in [2] is reported as “did not impart any significant toxicity”. In addition, in series [3], the “effect on blood vessels / vascularization network” value is “either no effect or little increase in the vascularization network”.
